The values below come from patent US10485792B2, “Sustained release delivery systems for the prevention and treatment of head and neck cancers” (HADASIT MEDICAL RESEARCH SERVICES & DEVELOPMENT LIMITED, priority 2009, dated 2019).

In data set [1] the test system is Oral Lichen Planus. The conditions noted are these: cited from earlier work.
Data set [2] can be described thus: Rapamycin stability in solution. Type of data set: physicochemical. The conditions noted are these: known concentration solutions at 37° C. for 24 hours. The method, then:
Rapamycin stability was evaluated by sampling known concentration solutions at 37° C. for 24 hours.

As for `CO[C@H]1C[C@@H]2CC[C@@H](C)[C@@](O)(O2)C(=O)C(=O)N2CCCC[C@H]2C(=O)O[C@H]([C@H](C)C[C@@H]2CC[C@@H](O)[C@H](OC)C2)CC(=O)[C@H](C)/C=C(\C)[C@@H](O)[C@@H](OC)C(=O)[C@H](C)C[C@H](C)/C=C/C=C/C=C/1C` [Rapamycin], the “Local side effect after first application” value in data set [1] (direct topical application to the diseased regions) was “tingling or burning sensations were encountered”. In data set [1] (direct topical application), the Blood levels entry is “negligible” and the Systemic adverse effects result is “no systemic adverse effects were encountered”. Besides, in data set [2], the Rapamycin stability entry is recorded as “No stability problems were observed”.
